Here are results for 31 compounds from publication PMC8286840, “Identifying SARS-CoV-2 antiviral compounds by screening for small molecule inhibitors of Nsp3 papain-like protease” (Biochemical Journal, 2021).

Molecules are shown by their SMILES. Where a name gives a salt, the structure may show the parent alone. Read-outs that look alike come from different tables or passages of the source.

For assay [1], the target named is T1, SARS-CoV-2 PLpro (nsp3 1564–1878) (Severe acute respiratory syndrome coronavirus 2, UniProt P0DTD1). In words: biochemical. Also noted: FRET-quenched peptide (Pro3) cleavage by PLpro, 10 min pre-incubation, slope over 20 min, normalised to no-compound control. The conditions noted are these: read-out: % of control remaining.
Assay [2] has as its target T1, SARS-CoV-2 PLpro (nsp3 1564–1878). Nature of the assay: biochemical. Also noted: FRET-quenched peptide (Pro3) cleavage by PLpro, 10 min pre-incubation, slope over 20 min, normalised to no-compound control. The conditions noted are these: read-out: % of control remaining. This is another data set of the same source.

As for `CC(C)(C)c1cc(C=C(C#N)C#N)cc(Br)c1O` [AG 1024], the remaining activity at 1.25 µM in assay [1] (Well no.=2307, low concentration screen) is 104%. Further, in assay [2] (Well no.=2307, high concentration screen), the remaining activity at 3.75 µM turned out to be 104%.

For the compound `Cc1cc2ncc(-c3ccccc3)nc2cc1C` [AG 1295], in assay [1] (Well no.=2611, low concentration screen), the remaining activity at 1.25 µM was 97.5%. In assay [2] (Well no.=2611, high concentration screen), the remaining activity at 3.75 µM was determined as 97.7%.

As to `COc1cc2ncc(-c3ccccc3)nc2cc1OC` [AG 1296], the remaining activity at 1.25 µM in assay [1] (Well no.=2613, low concentration screen) is 91.6%. In addition, in assay [2] (Well no.=2613, high concentration screen), the remaining activity at 3.75 µM came to 90.5%.

In the case of `COc1cc2ncnc(Nc3cccc(Cl)c3)c2cc1OC` [AG 1478], the remaining activity at 1.25 µM in assay [1] (Well no.=2643, low concentration screen) amounted to 97.4%. Moreover, the remaining activity at 3.75 µM in assay [2] (Well no.=2643, high concentration screen) was determined as 99.8%.

Turning to `Cc1nc2cc3nc(-c4cccs4)cnc3cc2n1C` [AGL 2043], the remaining activity at 1.25 µM in assay [1] (Well no.=2309, low concentration screen) worked out at 104%. The remaining activity at 3.75 µM in assay [2] (Well no.=2309, high concentration screen) was 103%.

For `CC(C)[C@H]1[C@@H]2CC[C@@H](C2)[C@@H]1N` [AGN 192403 hydrochloride], the remaining activity at 1.25 µM in assay [1] (Well no.=116, low concentration screen) came out at 101%. Besides, in assay [2] (Well no.=116, high concentration screen), the remaining activity at 3.75 µM came out at 104%.

`O=C(O)CCC/C=C\C[C@@H]1[C@@H](/C=C/[C@H](O)C2Cc3ccccc3C2)[C@@H](F)C[C@@H]1O` [AL-8810]: in assay [1] (Well no.=205, low concentration screen), the remaining activity at 1.25 µM stood at 100%. Moreover, the remaining activity at 3.75 µM in assay [2] (Well no.=205, high concentration screen) stood at 104%.

Turning to `Cc1noc(-c2ccc(-c3ccc(CC(=O)O)cc3)cc2)c1NC(=O)O[C@H](C)c1ccccc1` [AM095], the remaining activity at 1.25 µM in assay [1] (Well no.=7815, low concentration screen) came to 101%. The remaining activity at 3.75 µM in assay [2] (Well no.=7815, high concentration screen) is 94%.

On to `COc1ccc(C(=O)c2c(C)n(CCN3CCOCC3)c3cc(I)ccc23)cc1` [AM630], for which the remaining activity at 1.25 µM was 103% in assay [1] (Well no.=5463, low concentration screen) and 98.5% in assay [1] (Well no.=7903, low concentration screen). For the same compound, the remaining activity at 3.75 µM in assay [2] (Well no.=5463, high concentration screen) worked out at 107%; in assay [2] (Well no.=7903, high concentration screen), 106%.

For the compound `Cc1noc(-c2ccc(-c3ccc(CC(=O)O)cc3)cc2)c1NC(=O)O[C@H](C)c1ccccc1Cl` [AM966], in assay [1] (Well no.=6941, low concentration screen), the remaining activity at 1.25 µM was 104%. In addition, the remaining activity at 3.75 µM in assay [2] (Well no.=6941, high concentration screen) is 102%.

`CC1(C)CCC(C)(C)c2cc(C(=O)Nc3ccc(C(=O)O)cc3)ccc21` [AM-580]: in assay [1] (Well no.=4434, low concentration screen), the remaining activity at 1.25 µM was found to be 92.7%. For the same compound, the remaining activity at 3.75 µM in assay [2] (Well no.=4434, high concentration screen) was 86%.

For the compound `CN1CCCCC1Cn1cc(C(=O)c2cc([N+](=O)[O-])ccc2I)c2ccccc21` (centres unmarked) [AM-1241], the remaining activity at 1.25 µM in assay [1] (Well no.=5289, low concentration screen) came out at 101%. For the same compound, the remaining activity at 3.75 µM in assay [2] (Well no.=5289, high concentration screen) was 99%.

On to `c1ccc(CNCc2ccc(CN3CCCNCCNCCCNCC3)cc2)nc1` [AMD 3465 (hexahydrobromide)], for which the remaining activity at 1.25 µM in assay [1] (Well no.=7245, low concentration screen) stood at 90.9%; in assay [1] (Well no.=8419, low concentration screen) it was 98.5%. The remaining activity at 3.75 µM in assay [2] (Well no.=7245, high concentration screen) came out at 87.4%; in assay [2] (Well no.=8419, high concentration screen), 92.2%.

Take `NCCCCN(Cc1nc2ccccc2[nH]1)[C@H]1CCCc2cccnc21` [AMD-070 (hydrochloride)]: the remaining activity at 1.25 µM in assay [1] (Well no.=7093, low concentration screen) was 106%. In assay [2] (Well no.=7093, high concentration screen), the remaining activity at 3.75 µM came to 100%.

On to `CCOc1ccc(-n2c([C@@H](C)N(Cc3cccnc3)C(=O)Cc3ccc(OC(F)(F)F)cc3)nc3ncccc3c2=O)cc1` [AMG 487], for which the remaining activity at 1.25 µM in assay [1] (Well no.=8651, low concentration screen) worked out at 101%. The remaining activity at 3.75 µM in assay [2] (Well no.=8651, high concentration screen) is 97.8%.

For the compound `CC#C[C@@H](CC(=O)O)c1ccc(OCc2cccc(-c3ccc(C(F)(F)F)cc3)c2)cc1` [AMG 837 (calcium hydrate)], the remaining activity at 1.25 µM in assay [1] (Well no.=6944, low concentration screen) was determined as 98.4%. The remaining activity at 3.75 µM in assay [2] (Well no.=6944, high concentration screen) came to 95.6%.

With `Cc1csc(-c2nnc(Nc3ccc(Oc4ncccc4-c4ccnc(N)n4)cc3)c3ccccc23)c1` [AMG 900], the remaining activity at 1.25 µM in assay [1] (Well no.=5023, low concentration screen) came out at 97.2%. Moreover, the remaining activity at 3.75 µM in assay [2] (Well no.=5023, high concentration screen) is 100%.

With `CC(=O)Nc1nc2c(Oc3cc(-c4ccc(C(F)(F)F)cc4)ncn3)cccc2s1` [AMG-517], the remaining activity at 1.25 µM in assay [1] (Well no.=5176, low concentration screen) amounted to 102%. Besides, in assay [2] (Well no.=5176, high concentration screen), the remaining activity at 3.75 µM was 99.6%.

As for `CNc1nccc(-c2cccnc2Oc2cc(C(=O)Nc3cccc(C(F)(F)F)c3)ccc2C)n1` [AMG-Tie2-1], in assay [1] (Well no.=2788, low concentration screen), the remaining activity at 1.25 µM turned out to be 97.1%. Further, the remaining activity at 3.75 µM in assay [2] (Well no.=2788, high concentration screen) was 94.9%.

Take `c1cc(-c2cnn3cc(-c4ccc(OCCN5CCCCC5)cc4)cnc23)ccn1` [AMPK Inhibitor, Compound C]: the remaining activity at 1.25 µM in assay [1] (Well no.=2324, low concentration screen) was 98.4%. Moreover, in assay [2] (Well no.=2324, high concentration screen), the remaining activity at 3.75 µM worked out at 103%.

For the compound `CC[C@H](C(=O)N1CCCC[C@H]1C(=O)O[C@H](CCc1ccc(OC)c(OC)c1)c1cccc(OCC(=O)O)c1)c1cc(OC)c(OC)c(OC)c1` [AP1867], the remaining activity at 1.25 µM in assay [1] (Well no.=6982, low concentration screen) is 103%. In assay [2] (Well no.=6982, high concentration screen), the remaining activity at 3.75 µM was 100%.

Consider `CC[C@H](C(=O)N1CCCC[C@H]1C(=O)O[C@H](CCc1ccc(OC)c(OC)c1)c1cccc(OCC(=O)NCC(CNC(=O)COc2cccc([C@@H](CCc3ccc(OC)c(OC)c3)OC(=O)[C@@H]3CCCCN3C(=O)[C@@H](CC)c3cc(OC)c(OC)c(OC)c3)c2)CN(C)C)c1)c1cc(OC)c(OC)c(OC)c1` [AP20187], for which the remaining activity at 1.25 µM worked out at 98.8% in assay [1] (Well no.=7174, low concentration screen) and 102% in assay [1] (Well no.=7696, low concentration screen). Also, the remaining activity at 3.75 µM was 100% in assay [2] (Well no.=7174, high concentration screen) and 97.5% in assay [2] (Well no.=7696, high concentration screen).

With `CC(C)OC(=O)N1CCC(Oc2ncnc3c2cnn3-c2ccc(S(C)(=O)=O)cc2F)CC1` [APD668], the remaining activity at 1.25 µM in assay [1] (Well no.=6274, low concentration screen) stood at 105%. Besides, in assay [2] (Well no.=6274, high concentration screen), the remaining activity at 3.75 µM came to 104%.

Consider `O=C(/C=C/c1cccnc1)NCCCCC1CCN(C(=O)c2ccccc2)CC1` [APO866 (FK866)], for which the remaining activity at 1.25 µM in assay [1] (Well no.=5123, low concentration screen) stood at 99%. For the same compound, the remaining activity at 3.75 µM in assay [2] (Well no.=5123, high concentration screen) amounted to 94.7%.

As to `CCN(CC)c1ncnc2c1ncn2[C@@H]1O[C@H](COP(=O)(O)OP(=O)(O)C(Br)(Br)P(=O)(O)O)[C@@H](O)[C@H]1O` [ARL 67156 trisodium salt], the remaining activity at 1.25 µM in assay [1] worked out at 96%. Further, the remaining activity at 3.75 µM in assay [2] came out at 96.3%.

For `CNC(=O)c1ccc(N2C(=S)N(c3cnc(C#N)c(C(F)(F)F)c3)C(=O)C23CCC3)cc1F` [ARN-509], the remaining activity at 1.25 µM in assay [1] (Well no.=5169, low concentration screen) worked out at 105%. Further, the remaining activity at 3.75 µM in assay [2] (Well no.=5169, high concentration screen) amounted to 101%.

For `C[C@@H]1COC(Nc2ccc3ncnc(Nc4ccc(OCc5nccs5)c(Cl)c4)c3c2)=N1` [ARRY334543], the remaining activity at 1.25 µM in assay [1] (Well no.=5073, low concentration screen) was found to be 102%. In addition, the remaining activity at 3.75 µM in assay [2] (Well no.=5073, high concentration screen) is 106%.

Take `O=C1NC(=O)/C(=C/c2ccc(-c3ccc(F)cc3O)o2)S1` [AS-252424]: the remaining activity at 1.25 µM in assay [1] (Well no.=2947, low concentration screen) was 93.9%. Moreover, the remaining activity at 3.75 µM in assay [2] (Well no.=2947, high concentration screen) is 97.2%.

Regarding `C=CC(=O)Nc1ccc2ncnc(Nc3ccc(OCc4cccc(F)c4)c(Cl)c3)c2c1` [AST-1306], the remaining activity at 1.25 µM in assay [1] (Well no.=5142, low concentration screen) came to 101%. For the same compound, the remaining activity at 3.75 µM in assay [2] (Well no.=5142, high concentration screen) came to 100%.

Take `Clc1ccc(C2(c3ccc(-c4cn[nH]c4)cc3)CCNCC2)cc1` [AT7867]: in assay [1] (Well no.=5295, low concentration screen), the remaining activity at 1.25 µM turned out to be 95.9%. Besides, the remaining activity at 3.75 µM in assay [2] (Well no.=5295, high concentration screen) was determined as 96.7%.

As for `O=C(Nc1c[nH]nc1-c1nc2ccc(CN3CCOCC3)cc2[nH]1)NC1CC1` [AT9283], the remaining activity at 1.25 µM in assay [1] (Well no.=2884, low concentration screen) is 93.2%. Also, the remaining activity at 3.75 µM in assay [2] (Well no.=2884, high concentration screen) was found to be 95.8%.
